Experimental findings from US20060004044A1, “3-glyoxylamideindoles for treating cancer” (Synta Pharmaceuticals Corp., priority 2001, published 2006) are described below.

Data set [1] relates to MDA435 human breast tumor. The experiment in a line: Tumor growth inhibition assay, human breast tumor (MDA435) xenograft model, oral treatment. Type of data set: in vivo, nude mice. To be noted: for body weight change / loss: nude mice with MDA435 tumors, oral, Compound (5) 25 mg/kg, Compound (3) 50 mg/kg; for tumor growth inhibition (FIG. 2): nude mice, 3 times a week for 3 weeks. A general note: In xenograft studies the graft and the host belong to different species.

The subject of data set [2] is MES-SA/DX5 multi-drug resistant human uterine sarcoma cell line. The experiment in a line: In vitro anti-cancer activity against MDR cell line MES-SA/DX5. Type of data set: cell-based. Conditions: for IC50: MES-SA/DX5 cells, 72 hours, MTS. On the procedure: (§1) The cell lines were maintained in RPM11640(GIBCO) supplemented with 10% FCS, 100 units/ml penicillin, 100 ug/ml streptomycin, and 2 mM L-glutamine. The cells were split every third day and diluted to a concentration of 2×10^5 cells/ml one day before experiment. All experiments were performed on exponentially growing cell culture. Cell densities were 2.5×10^4 cells/ml in all experiment.
(§2) A stock solution of Compound (1) was prepared by dissolving the compound at a concentration of 1 mM in 100% DMSO. Final concentrations were obtained by diluting the stock solution directly into the tissue culture medium. Cells were incubated with varying concentrations of compounds for 72 hours and the IC50 was determined by MTS (i.e. […]) assay. IC50 stands for the concentration of compound required to inhibit 50% tumor cell growth.
(§3) In vitro activity was determined in two MDR (Multi Drug Resistant) human cancer cell lines. HL-60/TX1000 was isolated in vitro by subculturing HL-60 in progressively higher concentration of Taxol. HL-60/TX1000 cells over-express mdr-1 mRNA and p-glycoprotein, as determined by western blot and immunofluorescence labeling with antiPGP antibodies. The cell is cross-resistant to Taxol, Vincristine, Adriamycin, Etoposide and Doxorubicin. MES-SA/Dx5 was established in the presence of increasing concentrations of Doxorubicin. […] MES-SA/Dx5 was purchased from ATCC.
(§4) The procedure for culturing the cells and assaying cancer cell growth inhibition were as described in Example 3.
(§5) The protocol described in Example 3 was used to assay inhibition by Compounds (2)-(10) on the growth of the multi-drug resistant cell lines MES-SA/DX5 and HL60/TX1000.

For data set [3], the system named is HL-60/TX1000 multi-drug resistant human myeloid leukemia cell line. The experiment in a line: In vitro anti-cancer activity against MDR cell line HL-60/TX1000. Type of data set: cell-based. Conditions: for IC50: Homo sapiens, HL-60/TX1000 cells, 72 hours, MTS. The protocol: as §1, §2, §3, §4, §5
For the next data set, the system named is H2 (human leukemia). The experiment in a line: In vitro anti-cancer activity, MTS assay, H2. Type of data set: cell-based. To be noted: H2 cells, 72 hours. On the procedure:
(§6) The in vitro activity of the compounds was determined in the following […] human cancer cell lines. MDA435 (human breast cancer), HL-60 (human myeloid leukemia), DU-145 (human prostate cancer), MES-SA (human uterine sarcoma), H2 (human leukemia) were obtained from ATCC (American Type of Culture Collection).
as §1, §2
On the technique in general: Tetrazolium dyes change colour on reduction, which living cells bring about.

Data set [4] relates to MES-SA (human uterine sarcoma). The experiment in a line: In vitro anti-cancer activity, MTS assay, MES-SA. The format is cell-based. Conditions: MES-SA cells, 72 hours. The protocol:
as §6, §1, §2

Data set [5] has as its system HL-60 (human myeloid leukemia). The experiment in a line: In vitro anti-cancer activity, MTS assay, HL-60. To be noted: HL-60 cells, 72 hours. Type of data set: cell-based. On the procedure:
as §6, §1, §2

The test system of a further data set is MCF-7 human breast tumor. The experiment in a line: Tumor growth inhibition assay, human breast tumor (MCF-7) xenograft model. The format is in vivo, nude mice (CD-1 nu/nu). Conditions: nude mice; for tumor growth inhibition (FIG. 1): 3 times a week for 3 weeks.
Data set [6] has as its system MDA435 (human breast cancer). The experiment in a line: In vitro anti-cancer activity, MTS assay, MDA435. Type of data set: cell-based. Conditions: MDA-435 cells, 72 hours. The protocol: as §6, §1, §2
In data set [7] the test system is DU-145 (human prostate cancer). The experiment in a line: In vitro anti-cancer activity, MTS assay, DU-145. Type of data set: cell-based. Conditions: DU-145 cells, 72 hours. The protocol:
as §6, §1, §2

By IC50 is commonly meant the concentration that gives 50% inhibition. A higher IC50 goes with weaker potency in that assay. With `NC(=O)c1ccc(NC(=O)C(=O)c2cn(Cc3ccc(Cl)cc3)c3ccccc23)cc1` [Compound (3)], in data set [1], the “body weight change / loss” value is on record as “without showing significant body weight loss”. In addition, the “tumor growth inhibition (FIG. 2)” value in data set [1] (50 mg/kg orally by gavage) is reported as “significantly inhibit tumor growth”. The IC50 in [2] (Homo sapiens) and in data set [3] (HL60/TX1000) was 50 nM in each case.

Turning to `N#Cc1ccc(Cn2cc(C(=O)C(=O)Nc3ccncc3)c3ccccc32)cc1` [(9)], the IC50 in [2] (Homo sapiens) and in data set [3] (HL60/TX1000) was 50 nM each time.

For `CN(c1ccccc1)n1cc(C(=O)C(=O)Nc2ccc3ncccc3c2)c2ccccc21` [(8)], the IC50 came out at 100 nM in [2] (Homo sapiens, MES-SA/Dx5, 72 h) and 100 nM in data set [3] (HL60/TX1000, 72 h).

Turning to `Cc1cc(NC(=O)C(=O)c2cn(Cc3ccc(Cl)cc3)c3ccccc23)no1` [(10)], the IC50 in [2] (Homo sapiens) and in data set [3] (HL60/TX1000) was 50 nM in each case.

Consider `Cc1cc(NC(=O)C(=O)c2cn(Cc3ccc(C#N)cc3)c3ccccc23)sn1` [Compound (2)], for which the IC50 in data set [2] (Homo sapiens) and in [3] (HL60/TX1000) was 5 nM in each case.

`Cc1cc(NC(=O)C(=O)c2cn(Cc3ccc(Cl)cc3)c3ccccc23)sn1` [Compound (1), 2-(1-(4-Chloro-benzyl)-1-indol-3-yl)-N-(3-methyl-isothiazol-5-yl)-2-oxo-acetamide]: the IC50 is 5 nM in the data set with H2 (human leukemia); 5 nM in [4]; 5 nM in [5]; 10 nM in data set [2] (Homo sapiens); 5 nM in data set [6]; 10 nM in data set [3] (HL60/TX1000). Also, in data set [7], 5 nM corresponded to half-maximal inhibition (IC50). Further, the “anti-cancer activity against MDR cancer cell lines (in words)” value in data set [2] (MES-SA/DX5) and in data set [3] (HL-60/TX1000) was “high anti-cancer activity” each time. In addition, the “tumor growth inhibition (FIG. 1)” value in the data set on MCF-7 human breast tumor (7.5 mg/kg intravenously) and in the data set with MCF-7 human breast tumor (10 mg/kg intravenously) was “significantly inhibits tumor growth” each time. In addition, in the data set with MCF-7 human breast tumor (7.5 and 10 mg/kg), the toxicity entry was “acceptable toxicity”. Moreover, in the data set on MCF-7 human breast tumor (intravenously every second day, 10 mg/kg), the “reduction of volume of tumors” value is listed as “greater than 50%”.

With `O=C(Nc1ccon1)C(=O)c1cn(Cc2ccc(Cl)cc2)c2ccccc12` [(7)], the IC50 was 80 nM in [2] (Homo sapiens) and 50 nM in data set [3] (HL60/TX1000).

Regarding `O=C(Nc1ccc2ncccc2c1)C(=O)c1cn(Cc2ccc(Cl)cc2)c2ccccc12` [Compound (5)], the “body weight change / loss” value in data set [1] was “without showing significant body weight loss”. In addition, in [1] (25 mg/kg orally by gavage), the “tumor growth inhibition (FIG. 2)” value is on record as “significantly inhibit tumor growth”. Also, the IC50 in data set [2] (Homo sapiens) and in data set [3] (HL60/TX1000) was 50 nM each time.

With `CC[C@]1(O)C[C@H]2CN(CCc3c([nH]c4ccccc34)[C@@](C(=O)OC)(c3cc4c(cc3OC)N(C=O)[C@H]3[C@@](O)(C(=O)OC)[C@H](OC(C)=O)[C@]5(CC)C=CCN6CC[C@]43[C@@H]65)C2)C1` [Vincristine, reference compound], the IC50 was 1000 to 5000 nM in data set [2] (Homo sapiens, MES-SA/Dx5, 72 h) and 1000 nM in data set [2].

In the case of `NC(=O)c1ccc(NC(=O)C(=O)c2cn(Cc3ccc(Cl)cc3)c3ccccc23)nc1` [(4)], the IC50 in data set [2] (Homo sapiens) and in data set [3] (HL60/TX1000) was 50 nM each time.

With `CSc1nnc(NC(=O)C(=O)c2cn(Cc3ccc(Cl)cc3)c3ccccc23)[nH]1` [(6)], the IC50 in data set [2] (Homo sapiens) and in data set [3] (HL60/TX1000) was 50 nM throughout.
